Measurements: paper PMC6934184, “Selective DNA-PKcs inhibition extends the therapeutic index of localized radiotherapy and chemotherapy” (The Journal of Clinical Investigation, 2019)

Target: T1, EPHA7 (Homo sapiens, UniProt Q15375)
T1 construct: purchased Thermo Fisher Scientific (Life Technologies) SelectScreen
Experiment: SelectScreen LanthaScreen
Assay type: binding
Conditions: read-out: % displacement
How it was run: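 SelectScreen broad panel; activity (Z'LYTE, Adapta) plus binding formats. ATP: Km app for CSF1R Z'LYTE; 10 for CAMK1 Adapta. Readout = % per kinase.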

T1 sequence (Q15375 28-998): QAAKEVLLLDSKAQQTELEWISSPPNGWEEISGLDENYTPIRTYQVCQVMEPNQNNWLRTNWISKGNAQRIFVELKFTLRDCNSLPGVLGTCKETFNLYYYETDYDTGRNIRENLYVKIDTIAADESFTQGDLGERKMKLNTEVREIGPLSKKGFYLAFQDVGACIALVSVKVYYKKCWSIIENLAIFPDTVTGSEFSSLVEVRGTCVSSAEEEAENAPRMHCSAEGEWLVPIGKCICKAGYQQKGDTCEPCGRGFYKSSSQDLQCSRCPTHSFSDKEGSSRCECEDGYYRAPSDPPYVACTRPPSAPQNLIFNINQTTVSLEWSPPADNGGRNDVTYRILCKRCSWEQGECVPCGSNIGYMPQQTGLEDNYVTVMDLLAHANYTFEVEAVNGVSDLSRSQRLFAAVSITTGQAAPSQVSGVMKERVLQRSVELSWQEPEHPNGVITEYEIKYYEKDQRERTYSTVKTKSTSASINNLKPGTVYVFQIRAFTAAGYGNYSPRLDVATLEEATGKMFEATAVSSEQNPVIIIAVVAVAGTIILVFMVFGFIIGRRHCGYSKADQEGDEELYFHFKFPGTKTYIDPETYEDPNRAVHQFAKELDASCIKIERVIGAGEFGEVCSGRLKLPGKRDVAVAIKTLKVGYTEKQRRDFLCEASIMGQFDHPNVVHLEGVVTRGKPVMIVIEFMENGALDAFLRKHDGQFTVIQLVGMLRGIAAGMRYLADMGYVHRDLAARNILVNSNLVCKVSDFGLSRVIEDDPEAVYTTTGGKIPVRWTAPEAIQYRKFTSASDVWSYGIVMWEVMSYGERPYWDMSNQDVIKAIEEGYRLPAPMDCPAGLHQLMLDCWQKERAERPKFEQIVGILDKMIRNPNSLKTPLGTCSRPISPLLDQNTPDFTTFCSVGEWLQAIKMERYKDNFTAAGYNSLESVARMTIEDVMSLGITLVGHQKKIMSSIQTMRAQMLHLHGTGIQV

## CN(C(=O)CN1CCOCC1)c1ccc2sc3c(-c4cccc5c(=O)cc(N6CC7CCC(C6)O7)oc45)cccc3c2c1 [NU5455]
  inhibition at 1 µM: 1.2%
